Legend:
[1] = system: GLXMAW (Soybean, Williams); test: Postemergence herbicidal evaluation; type: in vivo, Glycine max, (L.) Merr. cv Williams; conditions: postemergence
Outline: (§1)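 First, seedlings were raised for around two weeks. Next, test material in 50/50 acetone/water containing 0.5% TWEEN 20 was sprayed through a nozzle at 40 psi, equivalent to about 0.0156–0.500 kg/ha. Finally, after 4–5 weeks in the greenhouse, plants were rated 0–9.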

ZEAMX (Corn, Field) = test: Postemergence herbicidal evaluation; type: in vivo, Zea mays; conditions: postemergence
Outline: as §1

SETVI (Foxtail, Green) [2] = test: Postemergence herbicidal evaluation; type: in vivo, Setaria viridis; conditions: postemergence
Outline: as §1

[3] = system: CHEAL (Lambsquarters, Common); test: Postemergence herbicidal evaluation; type: in vivo, Chenopodium album; conditions: postemergence
Outline: as §1

[4] = system: TRZAWR (Wheat, Winter, cv Riband); test: Postemergence herbicidal evaluation; type: in vivo, Triticum aestivum; conditions: postemergence
Outline: as §1

GALAP (Galium) = test: Preemergence herbicidal evaluation; type: in vivo, Galium aparine; conditions: rated 4-5 weeks after treatment, rating scale 0-9
Outline: (§2)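 Scores (0–9) reflect visual comparison with control plants for stand, vigor, malformation, size and chlorosis. Compound was applied to the soil after sowing, before emergence, as an aqueous acetone spray (about 0.0156–0.500 kg/ha), and cups were kept in a greenhouse for 4–5 weeks.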

AMBEL (Ragweed, Common) = test: Preemergence herbicidal evaluation; type: in vivo, Ambrosia artemisifolia; conditions: rated 4-5 weeks after treatment, rating scale 0-9
Excerpt: Results of herbicide evaluation are expressed on a rating scale (0-9). The scale is based upon a visual observation of plant stand, vigor, malformation, size, chlorosis and overall plant appearance as compared with a control.
The preemergence herbicidal activity of the test compounds of the present invention is exemplified by the following tests in which the seeds of a variety of monocotyledonous and dicotyledonous plants are separately mixed with potting soil and planted on top of approximately one inch of soil in separate pint cups. After planting, the cups are sprayed with the selected aqueous acetone solution containing test compound in sufficient quantity to provide the equivalent of about 0.0156 to 0.500 kg per hectare of test compound per cup. The treated cups are then placed on greenhouse benches, watered and cared for in accordance with conventional greenhouse procedures. From four to five weeks after treatment, the tests are terminated and each cup is examined and rated according to the rating system provided in Example 37.
The compounds evaluated are reported by compound number given in Example 37.

ABUTH (Velvetleaf) = test: Postemergence herbicidal evaluation; type: in vivo, Abutilon theophrasti; conditions: postemergence
Outline: as §1

CYPIR (Rice Flatsedge) = test: Preemergence weed control under flooded paddy conditions; type: in vivo, Cyperus iria; conditions: rated 3-4 weeks after treatment
Outline: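 Silt loam, seeds in top 0.5 cm; flood held 1.5-3 cm; test cpd as acetone/water 50/50 into flood water, ~0.0313-0.500 kg/ha a.i.; greenhouse 3-4 wk; visual 0-9 score vs control.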

ORYSAT (Rice, Tebonnet) = test: Postemergence herbicidal evaluation; type: in vivo, Oryza sativa, (L.) Tebonnet; conditions: postemergence
Outline: as §1

SETVI (Foxtail, Green) [5] = test: Preemergence herbicidal evaluation; type: in vivo, Setaria viridis; conditions: rated 4-5 weeks after treatment, rating scale 0-9
Outline: as §2

Cn1c(C(F)(F)F)cc(=O)n(-c2cc(N=C3SCC(=O)N3Cc3ccccc3Cl)c(Cl)cc2F)c1=O [Compound 143]
5.0: herbicidal rating GLXMAW ([1]; rate 0.0625 kg/ha)
0.0: Preemergence herbicidal rating GALAP (GALAP (Galium); rate 0.0313 kg/ha) | Preemergence herbicidal rating GALAP (GALAP (Galium); rate 0.0625 kg/ha) | Preemergence herbicidal rating GALAP (GALAP (Galium); rate 0.2500 kg/ha) | Preemergence herbicidal rating AMBEL (AMBEL (Ragweed, Common); rate 0.0313 kg/ha) | Preemergence herbicidal rating AMBEL (AMBEL (Ragweed, Common); rate 0.0625 kg/ha) | herbicidal effect rating, CYPIR (CYPIR (Rice Flatsedge); 0.0313 kg/ha) | Preemergence herbicidal rating SETVI (SETVI (Foxtail, Green) [5]; rate 0.0313 kg/ha) | Preemergence herbicidal rating SETVI (SETVI (Foxtail, Green) [5]; rate 0.0625 kg/ha)
9.0: herbicidal rating ABUTH (ABUTH (Velvetleaf); rate 0.0156 kg/ha) | herbicidal rating ABUTH (ABUTH (Velvetleaf); rate 0.0313 kg/ha) | herbicidal rating ABUTH (ABUTH (Velvetleaf); rate 0.0625 kg/ha)
1.5: herbicidal rating TRZAWR ([4]; rate 0.0156 kg/ha) | herbicidal rating ORYSAT (ORYSAT (Rice, Tebonnet); rate 0.0156 kg/ha) | herbicidal rating ORYSAT (ORYSAT (Rice, Tebonnet); rate 0.0313 kg/ha)
4.0: herbicidal rating GLXMAW ([1]; rate 0.0156 kg/ha) | herbicidal rating ZEAMX (ZEAMX (Corn, Field); rate 0.0156 kg/ha) | herbicidal rating ZEAMX (ZEAMX (Corn, Field); rate 0.0313 kg/ha) | herbicidal rating ZEAMX (ZEAMX (Corn, Field); rate 0.0625 kg/ha) | herbicidal effect rating, CYPIR (CYPIR (Rice Flatsedge); 0.1250 kg/ha) | herbicidal effect rating, CYPIR (CYPIR (Rice Flatsedge); 0.2500 kg/ha)
2.0: herbicidal rating SETVI (SETVI (Foxtail, Green) [2]; rate 0.0156 kg/ha) | herbicidal rating CHEAL ([3]; rate 0.0156 kg/ha) | herbicidal rating TRZAWR ([4]; rate 0.0313 kg/ha) | Preemergence herbicidal rating AMBEL (AMBEL (Ragweed, Common); rate 0.1250 kg/ha) | herbicidal rating ORYSAT (ORYSAT (Rice, Tebonnet); rate 0.0625 kg/ha)
1.0: herbicidal rating SETVI (SETVI (Foxtail, Green) [2]; rate 0.0313 kg/ha) | Preemergence herbicidal rating GALAP (GALAP (Galium); rate 0.1250 kg/ha)
6.0: herbicidal rating CHEAL ([3]; rate 0.0313 kg/ha) | herbicidal rating CHEAL ([3]; rate 0.0625 kg/ha)
3.5: herbicidal rating TRZAWR ([4]; rate 0.0625 kg/ha)
4.5: herbicidal rating GLXMAW ([1]; rate 0.0313 kg/ha)
3.0: herbicidal rating SETVI (SETVI (Foxtail, Green) [2]; rate 0.0625 kg/ha) | Preemergence herbicidal rating AMBEL (AMBEL (Ragweed, Common); rate 0.2500 kg/ha) | herbicidal effect rating, CYPIR (CYPIR (Rice Flatsedge); 0.0625 kg/ha) | Preemergence herbicidal rating SETVI (SETVI (Foxtail, Green) [5]; rate 0.1250 kg/ha) | Preemergence herbicidal rating SETVI (SETVI (Foxtail, Green) [5]; rate 0.2500 kg/ha)
